In patent US11389407B2, “Cochleates and methods of using the same to enhance tissue penetration of pharmacologically active agent” (priority 2015, dated 2022):
≈ marks a conversion by molar mass, not a printed value.

Tested on: Candida albicans
Assay: Minimum inhibitory concentration (MIC)
Assay type: cell-based

- minimum inhibitory concentration (MIC): 0.25 µg/mL (≈ 0.271 µM)
Compound: C[C@@H]1[C@H](O)[C@@H](C)/C=C/C=C/C=C/C=C/C=C/C=C/C=C/[C@H](O[C@@H]2O[C@H](C)[C@@H](O)[C@H](N)[C@@H]2O)C[C@@H]2O[C@](O)(C[C@@H](O)C[C@@H](O)[C@H](O)CC[C@@H](O)C[C@@H](O)CC(=O)O[C@H]1C)C[C@H](O)[C@H]2C(=O)O [AmB, amphotericin B]
